Laboratory results as given in patent US5942631A, “Inhibitors of cholesterol esterase” (University Of New Mexico, priority 1998, dated 1999).

Target: T1, cholesterol esterase (CE) (Homo sapiens, UniProt P19835)
T1 sequence (P19835 21-753): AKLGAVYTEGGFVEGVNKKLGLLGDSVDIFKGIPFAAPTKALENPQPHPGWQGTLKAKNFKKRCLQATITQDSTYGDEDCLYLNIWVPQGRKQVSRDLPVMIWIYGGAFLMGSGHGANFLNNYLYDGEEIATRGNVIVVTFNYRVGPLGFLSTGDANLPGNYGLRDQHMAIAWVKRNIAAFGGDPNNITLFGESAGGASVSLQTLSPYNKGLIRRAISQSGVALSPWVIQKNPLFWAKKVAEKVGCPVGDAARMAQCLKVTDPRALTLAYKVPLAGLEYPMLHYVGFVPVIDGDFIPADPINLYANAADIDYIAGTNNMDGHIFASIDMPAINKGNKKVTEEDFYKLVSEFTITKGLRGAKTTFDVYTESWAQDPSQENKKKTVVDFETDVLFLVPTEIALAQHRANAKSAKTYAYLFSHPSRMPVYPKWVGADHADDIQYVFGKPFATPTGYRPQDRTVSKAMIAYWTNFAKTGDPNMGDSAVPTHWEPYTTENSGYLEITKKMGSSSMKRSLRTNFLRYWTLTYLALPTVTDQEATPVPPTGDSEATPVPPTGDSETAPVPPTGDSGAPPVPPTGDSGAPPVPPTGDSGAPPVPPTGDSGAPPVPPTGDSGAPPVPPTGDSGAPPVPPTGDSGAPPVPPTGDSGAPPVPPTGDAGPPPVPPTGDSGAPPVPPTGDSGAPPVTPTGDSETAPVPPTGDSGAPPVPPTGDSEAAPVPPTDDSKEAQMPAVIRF
Assay: Kinetic inhibition studies of cholesterol esterase (CE), substrate p-nitrophenylbutyrate, Dixon plots
Assay type: biochemical
Conditions: for inhibition of CE: kinetic inhibition studies, result in words

inhibition of CE | Structure (SMILES) | mode of inhibition of CE (1/V v [I] plots intersect above the x-axis, FIG. 6) | Ki (printed as "<<30", inferred because calculated Ki equals [E]/2, read-out: actual Ki for CE (suggested)) [µM]
potent inhibitors of CE | O=c1oc(Cl)ccc1CC1CCCCC1 [Example 2] |  | 
potent inhibitors of CE | O=c1oc(Cl)ccc1CCCC1CCCCC1 [Example 4] |  | 

Structure (SMILES) | inhibition of CE | mode of inhibition of CE (1/V v [I] plots intersect above the x-axis, FIG. 6) | Ki (printed as "<<30", inferred because calculated Ki equals [E]/2, read-out: actual Ki for CE (suggested)) [µM]
O=c1oc(Cl)ccc1CCC1CCCCC1 [Example 3, 3-(2-cyclohexylethyl)-6-chloropyronle] | potent inhibitors of CE | competitive inhibition | < 0.03
